Results as given in PubChem BioAssay AID1963851 (Molecular Pharmacology Branch, DTP, NCI, 2024).

Test system: 188146-221-R-J1-PDC complex spheroid viability
Assay: Anticancer human tumor 188146-221-R-J1-PDC patient-derived colon adenocarcinoma cell line growth inhibition [POLQ]
Settings: for IC50: curve of first compound; for viability, T/C: stronger effect = lower value
In short: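 Three-cell-type spheroids modelling solid tumor plus stroma served as the readout system; POL inhibitors were tested individually and in combination, concentration ranges set by clinical Cmax where known.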

[1] = second compound 0.0316 µM, first compound 0.0316 µM
[2] = second compound 0.0316 µM, first compound 0.1 µM
[3] = second compound 0.0316 µM, first compound 0.316 µM
[4] = second compound 0.0316 µM, first compound 1 µM
[5] = second compound 0.0316 µM, first compound 3.16 µM
[6] = second compound 0.0316 µM, first compound 10 µM
[7] = second compound 0.1 µM, first compound 0.0316 µM
[8] = second compound 0.1 µM, first compound 0.1 µM
[9] = second compound 0.1 µM, first compound 0.316 µM
[10] = second compound 0.1 µM, first compound 1 µM
[11] = second compound 0.1 µM, first compound 3.16 µM
[12] = second compound 0.1 µM, first compound 10 µM
[13] = second compound 0.316 µM, first compound 0.0316 µM
[14] = second compound 0.316 µM, first compound 0.1 µM
[15] = second compound 0.316 µM, first compound 0.316 µM
[16] = second compound 0.316 µM, first compound 1 µM
[17] = second compound 0.316 µM, first compound 3.16 µM
[18] = second compound 0.316 µM, first compound 10 µM
[19] = second compound 1 µM, first compound 0.0316 µM
[20] = second compound 1 µM, first compound 0.1 µM
[21] = second compound 1 µM, first compound 0.316 µM
[22] = second compound 1 µM, first compound 1 µM
[23] = second compound 1 µM, first compound 3.16 µM
[24] = second compound 1 µM, first compound 10 µM
[25] = second compound 3.16 µM, first compound 0.0316 µM
[26] = second compound 3.16 µM, first compound 0.1 µM
[27] = second compound 3.16 µM, first compound 0.316 µM
[28] = second compound 3.16 µM, first compound 1 µM
[29] = second compound 3.16 µM, first compound 3.16 µM
[30] = second compound 3.16 µM, first compound 10 µM
[31] = second compound 10 µM, first compound 0.0316 µM
[32] = second compound 10 µM, first compound 0.1 µM
[33] = second compound 10 µM, first compound 0.316 µM
[34] = second compound 10 µM, first compound 1 µM
[35] = second compound 10 µM, first compound 3.16 µM
[36] = second compound 10 µM, first compound 10 µM
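Also: spheroids exposed to compounds for seven days.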
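For viability, T/C in this document: 100% = DMSO vehicle control viability.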

CC1COCCN1c1cc(-c2ccnn2C)c2ccnc(-c3ccn[nH]3)c2n1 (stereo unspecified) + Nc1ccc(C#CCN(C(=O)Cc2ncc(C(F)(F)F)cc2C(F)(F)F)c2ccc(F)cc2)nn1
IC50 (second compound 0.0316 µM): 177 nM
IC50 (second compound 0.1 µM): 228 nM
IC50 (second compound 0.316 µM): 173 nM
IC50 (second compound 1 µM): 142 nM
IC50 (second compound 3.16 µM): 162 nM
IC50 (second compound 10 µM): 176 nM
viability, T/C [1]: 84.9%
viability, T/C [2]: 63.2%
viability, T/C [3]: 36.3%
viability, T/C [4]: 22.6%
viability, T/C [5]: 16.3%
viability, T/C [6]: 14.5%
viability, T/C [7]: 86.4%
viability, T/C [8]: 72.8%
viability, T/C [9]: 40.3%
viability, T/C [10]: 22.3%
viability, T/C [11]: 17.2%
viability, T/C [12]: 12.9%
viability, T/C [13]: 80%
viability, T/C [14]: 61.1%
viability, T/C [15]: 38.3%
viability, T/C [16]: 20%
viability, T/C [17]: 14.1%
viability, T/C [18]: 15.8%
viability, T/C [19]: 96.3%
viability, T/C [20]: 54%
viability, T/C [21]: 40.2%
viability, T/C [22]: 19.2%
viability, T/C [23]: 16.2%
viability, T/C [24]: 15%
viability, T/C [25]: 89.7%
viability, T/C [26]: 56.7%
viability, T/C [27]: 42.6%
viability, T/C [28]: 19.6%
viability, T/C [29]: 17.4%
viability, T/C [30]: 14.2%
viability, T/C [31]: 77.3%
viability, T/C [32]: 66.1%
viability, T/C [33]: 33.2%
viability, T/C [34]: 19.8%
viability, T/C [35]: 18.6%
viability, T/C [36]: 14.7%

O=C(Nc1ccc(O)c(NS(=O)(=O)c2ccc(F)cc2)c1)c1ccc(-c2ccccc2)cc1 + COC1C(OC(N)=O)C(O)C(Oc2ccc3c(O)c(NC(=O)c4ccc(O)c(CC=C(C)C)c4)c(=O)oc3c2C)OC1(C)C
IC50 (second compound 0.0316 µM): > 10000 nM
IC50 (second compound 0.1 µM): > 10000 nM
IC50 (second compound 0.316 µM): > 10000 nM
IC50 (second compound 1 µM): > 10000 nM
IC50 (second compound 3.16 µM): > 10000 nM
IC50 (second compound 10 µM): > 10000 nM
viability, T/C [1]: 104%
viability, T/C [2]: 95%
viability, T/C [3]: 99.7%
viability, T/C [4]: 97.6%
viability, T/C [5]: 86.5%
viability, T/C [6]: 89%
viability, T/C [7]: 106%
viability, T/C [8]: 104%
viability, T/C [9]: 96.5%
viability, T/C [10]: 99.4%
viability, T/C [11]: 98.8%
viability, T/C [12]: 75.2%
viability, T/C [13]: 95%
viability, T/C [14]: 108%
viability, T/C [15]: 101%
viability, T/C [16]: 100%
viability, T/C [17]: 88.2%
viability, T/C [18]: 69.4%
viability, T/C [19]: 102%
viability, T/C [20]: 96.2%
viability, T/C [21]: 105%
viability, T/C [22]: 101%
viability, T/C [23]: 94.4%
viability, T/C [24]: 79.5%
viability, T/C [25]: 105%
viability, T/C [26]: 106%
viability, T/C [27]: 108%
viability, T/C [28]: 88.7%
viability, T/C [29]: 97.4%
viability, T/C [30]: 73.1%
viability, T/C [31]: 96.9%
viability, T/C [32]: 95.8%
viability, T/C [33]: 113%
viability, T/C [34]: 102%
viability, T/C [35]: 103%
viability, T/C [36]: 83.3%

COc1cccc(OCCCN)c1-c1cc(Nc2cnc(C#N)cn2)n[nH]1 + Nc1ccc(C#CCN(C(=O)Cc2ncc(C(F)(F)F)cc2C(F)(F)F)c2ccc(F)cc2)nn1
IC50 (second compound 0.0316 µM): 64.2 nM
IC50 (second compound 0.1 µM): 57.3 nM
IC50 (second compound 0.316 µM): 47.7 nM
IC50 (second compound 1 µM): 29.9 nM
IC50 (second compound 3.16 µM): 37.5 nM
IC50 (second compound 10 µM): 28.6 nM
viability, T/C (second compound 0.0316 µM, first compound 0.00316 µM): 94.9%
viability, T/C (second compound 0.0316 µM, first compound 0.01 µM): 96%
viability, T/C [1]: 77.4%
viability, T/C [2]: 32.7%
viability, T/C [3]: 16.2%
viability, T/C [4]: 13.6%
viability, T/C (second compound 0.1 µM, first compound 0.00316 µM): 104%
viability, T/C (second compound 0.1 µM, first compound 0.01 µM): 109%
viability, T/C [7]: 66.6%
viability, T/C [8]: 34.3%
viability, T/C [9]: 17.3%
viability, T/C [10]: 14%
viability, T/C (second compound 0.316 µM, first compound 0.00316 µM): 106%
viability, T/C (second compound 0.316 µM, first compound 0.01 µM): 99.1%
viability, T/C [13]: 59.1%
viability, T/C [14]: 30.9%
viability, T/C [15]: 16.9%
viability, T/C [16]: 12.2%
viability, T/C (second compound 1 µM, first compound 0.00316 µM): 108%
viability, T/C (second compound 1 µM, first compound 0.01 µM): 111%
viability, T/C [19]: 46.8%
viability, T/C [20]: 28.2%
viability, T/C [21]: 15.6%
viability, T/C [22]: 14%
viability, T/C (second compound 3.16 µM, first compound 0.00316 µM): 91.5%
viability, T/C (second compound 3.16 µM, first compound 0.01 µM): 85.1%
viability, T/C [25]: 54.3%
viability, T/C [26]: 23.7%
viability, T/C [27]: 15.6%
viability, T/C [28]: 13.7%
viability, T/C (second compound 10 µM, first compound 0.00316 µM): 119%
viability, T/C (second compound 10 µM, first compound 0.01 µM): 87.8%
viability, T/C [31]: 47.6%
viability, T/C [32]: 21.7%
viability, T/C [33]: 17%
viability, T/C [34]: 15.4%
